Laboratory results reported in patent publication US20260183437A1, “VHH ANTIBODY CONJUGATES WITH HETEROARYL CHELATORS” (ABDERA THERAPEUTICS INC., priority 2022, published 2026).

Legend:
[1] = molecular target: T1, Human HER2-His (Homo sapiens, UniProt P04626); assay: Affinity to target protein by biolayer interferometry (Octet Red96e); type: binding; settings: analyte Human HER2-His
T1 construct: His; purchased Sinobiologics 10004-H08H
Procedure: Antibody affinity was assessed using Octet Red96e (ForteBio). The association rate constant (ka), dissociation rate constant (kd) and affinity constant (KD) were measured by biolayer interferometry with anti-hIgG Fc (AHC) capture biosensors (Fortebio cat #18-5063). Each cycle was performed with orbital shake speed of 1,000 rpm. Antigen was titrated 1:2 from a suitable starting concentration in kinetics buffer (Fortebio, Cat #18-1105). A set of AHC biosensors was dipped in kinetics buffer for baseline step of 60s. Anti-Target VHH-Fc (5 μg/mL, in kinetics buffer) was loaded onto the biosensors for 240 s followed by a second baseline step of 30 s. The IgG captured sensors were dipped into buffer for single reference subtraction to compensate natural dissociation of capture IgG. Each biosensor was then dipped into corresponding concentration of target protein (human, murine or cynomolgus monomeric protein) for 600 s, followed by 1800 s of dissociation time in kinetics buffer, or conditions as optimized. A new set of AHC biosensors was used for every VHH-Fc. The data was analyzed by global fit 1:1 model for the association and dissociation step, (Octet software version v11.0).

[2] = molecular target: T2, human insulin (Homo sapiens, UniProt P01308); assay: Polyreactivity ELISA; type: binding; settings: 10 μg/mL VHH-Fc; signal normalized to non-coated well
T2 construct: 5 μg/mL of human insulin (SigmaAlrich, Cat #: I9278); purchased SigmaAlrich I9278
T2 sequence (P01308 25-54 limits assumed): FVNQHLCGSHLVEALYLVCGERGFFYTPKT
T2 sequence (P01308 90-110 limits assumed): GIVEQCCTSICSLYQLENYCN
Procedure: Polyreactivity of VHH-Fcs against negatively charged biomolecules was determined by ELISA (As in Avery et al., “Establishing in vitro in vivo correlations to screen monoclonal antibodies for physicochemical properties related to favorable human pharmacokinetics.” MAbs. 2018 February/March; 10(2):244-255). Briefly, ELISA plate was coated with 5 μg/mL of human insulin (SigmaAlrich, Cat #: I9278) and 10 μg/mL of double stranded DNA (SigmaAlrich, Cat #: D1626-250MG) overnight. The plate was blocked with ELISA buffer (PBS, 1 mM EDTA, 0.05% Tween-20, pH 7.4). 10 μg/mL of test VHH-Fcs was loaded onto the plates in quadruplicates and incubated for 2 hours. Goat anti-human Fc(0.01 ug/ml) conjugated with HRP was then added and the plate incubated for 1 hour. The signal was developed with TMB and A450 absorbance was measured with Synergy Neo2 plate reader. The signal was normalized with the signal of non-coated well for each antibody tested.

[3] = system: SHP-77; assay: ABC (Antibody Binding Capacity) assay, receptor density; type: cell-based
Procedure: (§1) In order to test efficacy of the immunoconjugate binding with respect to target density receptor density was measured on target positive cell lines. Target density was measured using the ABC (Antibody Binding Capacity) assay. Cancer cells expressing the target of interest, as well as a negative control cell line, were harvested with cell dissociation buffer, seeded at about 5×10^4 cells per well into 96-well V bottom plate (Sarstedt 82.1583.001). Cells were tested for receptor expression using QuantiBRITE PE beads (BD Cat #340495) and a PE-conjugated anti-hu IgG (Biolegend clone HP6017) following the manufacturers' instructions. In brief, VHH-Fc and isotype control antibodies were prepared at suitable saturating concentrations based on previous experiments. Antibody sample dilutions were incubated with the panel of cell lines on ice for 1 hour. Cells were washed twice with 1% FBS in 1×PBS (FACS buffer), centrifuged at 400 G for 4 min. Cells were then incubated with 4 μg/mL mouse PE-conjugated anti-hu and DAPI (1:1000) for 30 minutes on ice. Cells were washed twice with FACS buffer, centrifuged at 400 G for 4 minutes and resuspended in FACS buffer. Fluorescence intensity on the PE channel was measured on the iQue Screener platform, and data were processed with ForeCyt software. The amount of PE signal generated from the different primary antibody was then fit to a standard curve based off of known PE molecules/Quantibrite bead samples to determine the number of antibody-binding sites per cell. Relative antibody binding sites correlate to the number of antigens or receptors on cell surface.

[4] = system: HEK293-6E; assay: as above; type: cell-based
Procedure: as §1

[5] = system: BT474; assay: as above; type: cell-based
Procedure: as §1

[6] = system: HCT-116; assay: as above; type: cell-based
Procedure: as §1

[7] = system: HEK-DLL3; assay: as above; type: cell-based
Procedure: as §1

[8] = Thermal stability by differential scanning fluorimetry (DSF); type: physicochemical
Procedure: Denaturing temperatures (Tm) of VHH-Fes were determined from differential scanning fluorimetry (DSF) using Protein Thermo Shift Dye Kit™ (ThermoFisher, Cat #: 4461146). Briefly, A total of 1 μg of antibody was used in each reaction. Melting curves of the antibodies were generated using an Applied Biosystems QuantStudio 7 Flex Real-Time PCR System with the recommended settings stated in the kit manual. The Tm's of the antibodies in Table 1 were then determined by using the ThermoFisher Protein Thermal Shift software (v.1.3). Tm1 of the VHH-Fcs was determined by DSF.

[9] = molecular target: T3, hFcRn (Homo sapiens, UniProt P55899); assay: FcRn affinity by biolayer interferometry (Octet RED96e), pH 6.0; settings: pH 6.0, 2:1 binding model
T3 construct: purchased Sino Biological CT071-H27H-B
T3 sequence (P55899 24-297 limits assumed): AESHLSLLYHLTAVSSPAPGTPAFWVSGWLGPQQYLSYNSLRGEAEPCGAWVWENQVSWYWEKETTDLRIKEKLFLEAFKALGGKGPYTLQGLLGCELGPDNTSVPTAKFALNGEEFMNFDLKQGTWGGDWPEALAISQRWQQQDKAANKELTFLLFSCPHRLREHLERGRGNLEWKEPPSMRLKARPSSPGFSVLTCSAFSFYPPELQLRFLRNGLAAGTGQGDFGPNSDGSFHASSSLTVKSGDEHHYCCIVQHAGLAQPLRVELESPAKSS
T3 sequence (P61769 21-119 partner): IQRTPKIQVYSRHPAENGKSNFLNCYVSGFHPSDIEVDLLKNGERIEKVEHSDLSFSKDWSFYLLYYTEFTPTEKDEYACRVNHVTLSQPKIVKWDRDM
Procedure: FcRn affinity of VHH-Fc can generally be used to predict the half-life of antibody serum clearance. (See, e.g., Datta-Mannan A et al. “FcRn affinity-pharmacokinetic relationship of five human IgG4 antibodies engineered for improved in vitro FcRn binding properties in cynomolgus monkeys.” Drug Metab Dispos. 2012 August; 40(8):1545-55). Briefly, 10 nM of biotinylated hFcRn (Sino Biological, Cat #: CT071-H27H-B) was captured with the SA biosensor using Octet RED96e (Fortebio). The hFcRN coated biosensor was dipped into the sample solutions in sodium phosphate buffer (100 mM Na2HPO4, 150 mM NaCl w/ 0.05% Tween-20, pH 6.0) with serial concentrations of tested antibodies and the association measured. The dissociation was measured by dipping the biosensors into sodium phosphate buffer without antibody. The KD values were determined using Octet Data Analysis HT 11.0 software. 2:1 (Heterogeneous Ligand) binding model was used in analysis. […] Changes in FcRn affinity were consistent across targets. Constructs with Fc Effector mutation only have no impact on FcRn affinity.

Substance: H101: anti-HER2 VHH-Fc (2RS15d VHH, human IgG1 Fc); FcRn wt, Fc effector wt [Compound H101]
- Kd [1]: 3.79 nM
- Polyreactivity Assay Score, Insulin [2]: 1.176
- Estimated number of epitopes/cell [3]: 572 epitopes/cell
- Estimated number of epitopes/cell [4]: 1935 epitopes/cell
- Estimated number of epitopes/cell [5]: 401604 epitopes/cell
- Estimated number of epitopes/cell [6]: 2604 epitopes/cell
- Estimated number of epitopes/cell [7]: 1490 epitopes/cell
- Tm1 (thermostability) by DSF [8]: 67.5±0.1 Celsius
- Kd [9]: 3.7 nM
